Read-outs that look alike come from different tables or passages of the source.

These results are taken from patent US8507539B2, “Potassium channel blockers and uses thereof” (Bionomics Limited, priority 2008, dated 2013).

Common to all, as to type: cell-based
Assay [1] has as its target T1, hKv1.5 (Homo sapiens, UniProt P22460).
T1 construct: expressed in transfected cells
The assay can be described thus: Whole-cell patch-clamp inhibition of Kv1.5 currents in CHO cells stably transfected with hKv1.5. The following applies: from IC50 values, CHO-hKv1.5 vs CHO-hKv1.3. As to the method:
(§1) The effectiveness of the generated compounds in blocking the Kv1.3 current was assayed on CHO cells stably expressing hKv1.3. Cells were grown in F12 Kaighns' medium supplemented with 10% fetal calf serum, 2 mM L-glutamine, 1 mM Na^+ pyruvate, 100 units/ml penicillin, 100 Fg/ml streptomycin and 500 μg/ml G418 (to keep them under selection pressure). Kv1.3 currents were measured using the whole-cell configuration of the patch-clamp technique and were evoked by 500 ms depolarising voltage pulses to +40 mV from a holding potential of −80 mV at 30 sec intervals. Cells were continuously bathed in Ringers solution containing (mM): 160 NaCl, 4.5 KCl, 2.5 CaCl2, 1 MgCl2, 10 HEPES, pH 7.4, 290-310 mOsm. The internal (pipette) solution contained (mM): 134 KF, 2 MgCl2, 10 HEPES, 10 EGTA (pH 7.2, 290-310 mOsm). Series resistance compensation (60-80%) was applied when the peak current amplitude exceeded 2 nA. Compounds initially dissolved in DMSO were diluted in bath solution (final DMSO concentration 0.5%) and applied directly to the recording chamber at increasing concentrations allowing ample time for steady state block to be achieved between each concentration. Each compound was tested at 4-5 different concentrations in triplicate. IC50 values were determined by fitting the average normalised reduction of the current integral to the Hill equation.
(§2) IC50 values for inhibition of Kv1.3 currents were determined as described above. IC50 values for inhibition of Kv1.1 and Kv1.5 currents were determined by the method above using Chinese Hamster Ovary (CHO) cells stably transfected with hKv1.1 and hKv1.5.
A general note: The patch-clamp technique gives a direct electrical read-out from membranes.

Assay [2] concerns the target hKv1.3 (Homo sapiens, UniProt P22001). Put plainly: Whole-cell patch-clamp block of Kv1.3 current in CHO cells stably expressing hKv1.3. As to the method: as §1
Assay [3] concerns the target T2, hKv1.1 (Homo sapiens, UniProt Q09470).
T2 construct: expressed in transfected cells
Put plainly: Whole-cell patch-clamp inhibition of Kv1.1 currents in CHO cells stably transfected with hKv1.1. The following applies: from IC50 values, CHO-hKv1.1 vs CHO-hKv1.3. As to the method: as §1, §2

Where [4] appears, read: CHO cells stably expressing hKv1.3, whole-cell patch clamp, reported as ranges, read-out: IC50 (Kv1.3).
Setting [5] is: IC50 for inhibition of Kv1.3 currents, CHO-hKv1.3, read-out: Potency for Kv1.3.

Chain of hKv1.3 (P22001 whole entry): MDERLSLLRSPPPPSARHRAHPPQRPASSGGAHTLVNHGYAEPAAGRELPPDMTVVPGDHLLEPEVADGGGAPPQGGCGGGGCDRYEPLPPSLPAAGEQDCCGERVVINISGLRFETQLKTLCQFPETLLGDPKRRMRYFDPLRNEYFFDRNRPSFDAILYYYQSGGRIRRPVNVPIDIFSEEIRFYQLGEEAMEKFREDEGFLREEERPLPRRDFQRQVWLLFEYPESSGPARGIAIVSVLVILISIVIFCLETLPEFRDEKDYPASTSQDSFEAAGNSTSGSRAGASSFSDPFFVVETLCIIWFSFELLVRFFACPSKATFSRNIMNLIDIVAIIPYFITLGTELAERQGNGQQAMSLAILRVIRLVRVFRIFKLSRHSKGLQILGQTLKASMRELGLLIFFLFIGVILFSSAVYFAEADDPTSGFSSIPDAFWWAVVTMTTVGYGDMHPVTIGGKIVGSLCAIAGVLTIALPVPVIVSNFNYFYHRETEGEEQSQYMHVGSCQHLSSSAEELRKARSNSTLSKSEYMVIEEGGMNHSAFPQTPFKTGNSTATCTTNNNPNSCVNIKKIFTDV
T1 sequence (P22460 whole entry): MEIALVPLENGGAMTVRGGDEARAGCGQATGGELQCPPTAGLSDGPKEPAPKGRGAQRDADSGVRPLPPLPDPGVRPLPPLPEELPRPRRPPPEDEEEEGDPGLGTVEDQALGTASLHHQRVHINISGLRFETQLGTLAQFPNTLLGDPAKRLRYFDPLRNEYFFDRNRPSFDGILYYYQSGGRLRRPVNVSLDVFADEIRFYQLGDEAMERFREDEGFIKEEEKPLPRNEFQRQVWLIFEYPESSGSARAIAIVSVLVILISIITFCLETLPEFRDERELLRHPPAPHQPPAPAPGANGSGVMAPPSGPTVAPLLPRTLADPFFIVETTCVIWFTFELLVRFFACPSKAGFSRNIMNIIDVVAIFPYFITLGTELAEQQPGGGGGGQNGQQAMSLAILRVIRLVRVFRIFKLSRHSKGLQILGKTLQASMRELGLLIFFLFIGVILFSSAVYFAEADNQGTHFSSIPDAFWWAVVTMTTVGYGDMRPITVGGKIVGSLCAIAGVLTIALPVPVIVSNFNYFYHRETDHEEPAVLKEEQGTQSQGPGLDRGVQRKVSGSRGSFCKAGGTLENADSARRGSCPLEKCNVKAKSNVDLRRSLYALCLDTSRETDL
T2 sequence (Q09470 whole entry): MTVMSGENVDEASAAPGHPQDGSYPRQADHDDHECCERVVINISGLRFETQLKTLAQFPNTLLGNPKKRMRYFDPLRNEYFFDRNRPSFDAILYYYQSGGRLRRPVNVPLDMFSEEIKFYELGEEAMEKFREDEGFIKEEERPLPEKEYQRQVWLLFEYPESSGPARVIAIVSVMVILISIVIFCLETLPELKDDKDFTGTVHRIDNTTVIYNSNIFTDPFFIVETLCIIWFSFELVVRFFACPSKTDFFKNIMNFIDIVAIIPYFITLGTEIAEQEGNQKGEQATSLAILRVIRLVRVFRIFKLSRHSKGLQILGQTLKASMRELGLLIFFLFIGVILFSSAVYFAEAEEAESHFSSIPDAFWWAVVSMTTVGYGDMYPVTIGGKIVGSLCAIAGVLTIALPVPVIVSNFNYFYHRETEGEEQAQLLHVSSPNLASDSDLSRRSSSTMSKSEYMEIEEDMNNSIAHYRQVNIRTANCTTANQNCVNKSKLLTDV

Consider `CC(=O)c1c(OCCN2CCCCC2)c(OCCC(C)c2ccc(F)cc2)c2oc(C)nc2c1C` (centres unmarked) [Example 42, 5-Acetyl-7-[3-(4-fluorophenyl)butoxy]-6-[2-(piperidin-1-yl)-ethoxy]-2,4-dimethyl-benzooxazole], for which the “Selectivity for Kv1.3 over Kv1.5” value in assay [1] worked out at 24 fold. The IC50 in assay [2] (setting [4]) and in assay [2] (setting [5]) was under 0.05 µM in each case. The “Selectivity for Kv1.3 over Kv1.1” value in assay [3] is listed as 25 fold.

Take `CC(=O)c1c(OCCNC2CCCCC2)c(OCCC(C)c2ccc(F)cc2)c2oc(C)nc2c1C` (centres unmarked) [Example 18, 5-Acetyl-6-(2-cyclohexylamino-ethoxy)-7-[3-(4-fluorophenyl)butoxy]-2,4-dimethyl-benzooxazole]: the “Selectivity for Kv1.3 over Kv1.5” value in assay [1] is recorded as 12 fold. The IC50 in assay [2] (setting [4]) and in assay [2] (setting [5]) was under 0.05 µM each time. The “Selectivity for Kv1.3 over Kv1.1” value in assay [3] amounted to 11 fold.

Regarding `CC(=O)c1c(OCCN2CCCC(F)(F)C2)c(OCCC(C)c2ccc(F)cc2)c2oc(C(F)F)nc2c1C` (centres unmarked) [Example 31b, 5-Acetyl-7-[3-(4-fluorophenyl)butoxy]-6-(2-(3,3-difluoropiperidin-1-yl)-ethoxy)-4-methyl-2-difluoromethyl-benzo[d]oxazole], the “Selectivity for Kv1.3 over Kv1.5” value in assay [1] was 29 fold. For the same compound, the IC50 in assay [2] (setting [4]) and in assay [2] (setting [5]) was under 0.05 µM each time. Also, in assay [3], the “Selectivity for Kv1.3 over Kv1.1” value was 21 fold.

As for `CC(=O)c1c(OCCN(C)C)c(OCCC(C)c2ccc(F)cc2)c2oc(C)nc2c1C` (centres unmarked) [Example 7, 5-Acetyl-6-(2-dimethylaminoethoxy)-7-[3-(4-fluorophenyl)butoxy]-2,4-dimethyl-benzooxazole], in assay [2] (setting [4]), the IC50 fell in the range of 0.2 to 1 µM.

Consider `CC(=O)c1c(OCCn2nnnc2N)c(OCCC(C)c2ccc(F)cc2)c2oc(C)nc2c1C` (centres unmarked) [Example 11b, 5-Acetyl-6-[2-(5-amino-tetrazol-1-yl)-ethoxy]-7-[3-(4-fluorophenyl)butoxy]-2,4-dimethyl-benzooxazole], for which the IC50 in assay [2] (setting [4]) lay in the range of 0.05 to 0.2 µM.

For the compound `CC(=O)c1c(OCCc2ccccn2)c(OCCC(C)c2ccc(F)cc2)c2ocnc2c1C` (centres unmarked) [Example 3, 5-Acetyl-7-[3-(4-fluorophenyl)butoxy]-4-methyl-6-(2-pyridin-2-yl-ethoxy)benzooxazole], the IC50 in assay [2] (setting [4]) is under 0.05 µM.

For the compound `CC(=O)c1c(OCCNC(C)(C)C)c(OCCC(C)c2ccc(F)cc2)c2oc(C)nc2c1C` (centres unmarked) [Example 26, 5-Acetyl-6-(2-(N-tertbutylamino)ethoxy)-7-[3-(4-fluorophenyl)butoxy]-2,4-dimethyl-benzo[d]oxazole], the IC50 in assay [2] (setting [4]) fell in the range of 0.2 to 1 µM.

Turning to `CC(=O)c1c(OCCN2CCSCC2)c(OCCC(C)c2ccc(F)cc2)c2oc(C)nc2c1C` (centres unmarked) [Example 13], in assay [1], the “Selectivity for Kv1.3 over Kv1.5” value was 11 fold. The IC50 in assay [2] (setting [4]) and in assay [2] (setting [5]) was under 0.05 µM in each case. Further, the “Selectivity for Kv1.3 over Kv1.1” value in assay [3] is on record as 15 fold.
